“Also recorded” adds a separate entry of the source. Blank lines part the entries; values can stand above or below the molecule they belong to.
Key:
yeast PDE2 = target: T1, yeast PDE2 (Saccharomyces cerevisiae, UniProt P06776); assay: Phosphodiesterase activity assay, cell free extract of 10 DAB yeast expressing yeast PDE2; format: biochemical, S. cerevisiae
T1 construct: made in house; host or cells: S. cerevisiae strain 10 DAB (pde1- pde2-), cell free extract
Method: (§1) Yeast cells were grown at 30° C. for 36 hours in one liter cultures of synthetic media (SC-leucine). Cells were harvested and washed with buffer C ([…], 0.1 mM MgCl2, 0.1 mM EGTA, 1 mM β-mercaptoethanol), were resuspended in 30 ml buffer C with 50 μl 1M PMSF, and were disrupted with a French press. The extracts were centrifuged at 1,600 g for 10 min and the supernatants were spun at 18,000 g for 90 min (4° C.). The supernatant was assayed for phosphodiesterase activity (Sass, P., et al., Proc. Natl. Acad. Sci. USA 83:9303 (1986); Nikawa, J., et al., Mol. Cell. Biol. 7:3629 (1987)). All the reactions contained Tris-HCl (pH7.5) (100 mM), cell extract (50 μg protein/ml), 5′-nucleotidase (Sigma, 20 ng/ml) and 10 MM Mg^2+ (unless otherwise stated) and the indicated cyclic nucleotide concentrations. Assays for the cGMP hydrolysis used 1.5 μM cGMP. […] Reactions were incubated for 10 min at 30° C. and stopped with 5× stop solution (250 mM EDTA, 25 mM AMP, 100 mMcAMP).
This example illustrates the use of the genes and cells described in Example 1 to identify chemical compounds which inhibit the activity of a known enzyme, the rat DPD phosphodiesterase. To test the efficiency of known inhibitory compounds, cell free extracts were made as described in Phosphodiesterase Assays. Yeast cells deficient in endogenous phosphodiesterase (10 DAB), and expressing the rat DPD or yeast PDE2 genes from the described expression vector, were used. One liter cultures were harvested, washed in buffer C (20 mM MES/0.1 mM MgCl2/0.1 mM EGTA/1 mM 2-mercaptoethanol), resuspended in buffer C containing 1.5 mM phenylmethylsulfonyl fluoride, and disrupted in a French press at 4° C. Cell extracts were clarified at 100 g for 10 minutes and at 18000 g for 90 minutes. […] About 10^4 cpm were obtained for 10 minutes reactions and backgrounds (phosphodiesterase deficient-yeast or no extract) were about 300 cpm. The cytosolic fraction was assayed in the presence or absence of inhibitory compounds. […] The percent inhibition represents the decrease in phosphodiesterase activity relative to measurements made in the absence of inhibitors.

[1] = target: T2, rat DPD phosphodiesterase (Rattus norvegicus, UniProt P14646); assay: Phosphodiesterase activity assay, cell free extract of 10 DAB yeast expressing rat DPD; format: biochemical; settings: for Inhibition (%): DPD-1 extract
T2 construct: A large open reading frame of 562 codons was found; The first ATG appears at codon 46; made in house; host or cells: S. cerevisiae strain 10 DAB (pde1- pde2-) transformed with pADPD, cell free extract
T2 sequence (P14646 220-736): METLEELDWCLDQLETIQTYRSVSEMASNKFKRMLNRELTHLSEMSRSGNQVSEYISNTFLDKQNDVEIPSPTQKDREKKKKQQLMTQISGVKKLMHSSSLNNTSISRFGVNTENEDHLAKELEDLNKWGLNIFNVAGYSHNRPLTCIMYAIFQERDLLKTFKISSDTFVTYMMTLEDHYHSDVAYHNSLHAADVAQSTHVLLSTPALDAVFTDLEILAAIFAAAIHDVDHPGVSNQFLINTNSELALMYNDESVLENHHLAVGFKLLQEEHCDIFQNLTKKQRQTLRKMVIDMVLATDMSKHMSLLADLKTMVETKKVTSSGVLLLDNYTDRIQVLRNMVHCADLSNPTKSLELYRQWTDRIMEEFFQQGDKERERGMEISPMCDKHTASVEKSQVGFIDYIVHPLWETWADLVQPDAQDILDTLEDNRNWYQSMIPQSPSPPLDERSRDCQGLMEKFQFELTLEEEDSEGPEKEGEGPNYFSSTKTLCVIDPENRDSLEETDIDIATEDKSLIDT
Method: In order to analyse the biochemical properties of the DPD gene product, crude cell extracts were prepared from one liter cultures of 10 DAB which had been transformed with either pADNS or pADPD.
as §1
This example illustrates the use of the genes and cells described in Example 1 to identify chemical compounds which inhibit the activity of a known enzyme, the rat DPD phosphodiesterase. To test the efficiency of known inhibitory compounds, cell free extracts were made as described in Phosphodiesterase Assays. Yeast cells deficient in endogenous phosphodiesterase (10 DAB), and expressing the rat DPD or yeast PDE2 genes from the described expression vector, were used. One liter cultures were harvested, washed in buffer C (20 mM MES/0.1 mM MgCl2/0.1 mM EGTA/1 mM 2-mercaptoethanol), resuspended in buffer C containing 1.5 mM phenylmethylsulfonyl fluoride, and disrupted in a French press at 4° C. Cell extracts were clarified at 100 g for 10 minutes and at 18000 g for 90 minutes. […] The cytosolic fraction was assayed in the presence or absence of inhibitory compounds. […] The percent inhibition represents the decrease in phosphodiesterase activity relative to measurements made in the absence of inhibitors.

[2] = test system: 10 DAB cells expressing DPD; assay: Heat shock survival of 10 DAB yeast cells expressing DPD; format: cell-based, S. cerevisiae; settings: 100 μM, 40 minutes pretreatment, heat shock 50° C. 30 minutes
Text: This example illustrates the use of the genes and methods described to identify chemical compounds which inhibit the function of the encoded mammalian proteins expressed in yeast, even when the function of that protein is not known. 10DAB cells, which are phosphodiesterase deficient, are sensitive to heat shock. As already discussed, when these cells express DPD, they become resistant to heat shock. […] 10 DAB cells expressing DPD were maintained in rich medium (YPD) for three days at stationary phase. […] Control cultures were not treated with any inhibitor. These cultures were then heat shocked in glass tubes at 50° C. for 30 minutes. One microliter of each culture was plated.

T1 sequence (P06776 whole entry): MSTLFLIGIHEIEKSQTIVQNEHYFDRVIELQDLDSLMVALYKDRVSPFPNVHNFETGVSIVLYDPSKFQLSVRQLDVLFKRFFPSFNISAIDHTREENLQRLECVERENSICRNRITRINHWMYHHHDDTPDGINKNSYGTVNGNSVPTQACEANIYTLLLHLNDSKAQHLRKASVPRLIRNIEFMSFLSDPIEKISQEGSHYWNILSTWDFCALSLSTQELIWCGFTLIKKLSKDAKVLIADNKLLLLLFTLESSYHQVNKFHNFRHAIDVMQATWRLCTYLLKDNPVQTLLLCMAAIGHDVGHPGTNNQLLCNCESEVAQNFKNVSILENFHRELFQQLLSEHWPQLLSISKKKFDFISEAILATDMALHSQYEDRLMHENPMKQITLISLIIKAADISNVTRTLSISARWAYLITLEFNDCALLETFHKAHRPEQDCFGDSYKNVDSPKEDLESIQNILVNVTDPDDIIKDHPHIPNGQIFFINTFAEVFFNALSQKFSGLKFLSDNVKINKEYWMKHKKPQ

Inhibition (%) (yeast PDE2; agent 250 μM): 0.0% | Inhibition (%) ([1]; agent 250 μM): 87. %
SMILES: CC(C)Cn1c(=O)n(C)c(=O)c2[nH]cnc21 [IBMX]

Inhibition (%) (yeast PDE2; agent 100 μM): 3.0% | Inhibition (%) ([1]; agent 0.1 μM): 35. % | Inhibition (%) ([1]; agent 1.0 μM): 52. % | Inhibition (%) ([1]; agent 10.0 μM): 79. % | Inhibition (%) ([1]; agent 100.0 μM): 92. %
SMILES: CCCCOc1cc(CC2CNC(=O)N2)ccc1OC (stereo not drawn) [R020 1724]
Inhibition of enzymatic activity of the rat DPD gene product (in words) ([1]; cell extract, summary of Example 3): most effective inhibitors of DPD activity; also recorded: inhibited

SMILES: COc1ccc(C2CNC(=O)C2)cc1OC1CCCC1 (stereo not drawn) [Rolipram]
Heat shock sensitivity after treatment (inhibition of DPD function) [2]: much more sensitive to heat shock; also recorded: suppression of heat shock resistance | inhibition at 100 µM (yeast PDE2; agent 100 μM): 0%

SMILES: Cn1c(=O)c2[nH]cnc2n(C)c1=O [Theophylline]
inhibition at 250 µM (yeast PDE2; agent 250 μM): 0%

Inhibition of cAMP phosphodiesterase activity by cGMP ([1]; 5 μM cAMP, cGMP 100 fold over substrate (up to 500 μM)): unable to inhibit
SMILES: Nc1nc2c(ncn2[C@@H]2O[C@@H]3COP(=O)(O)O[C@H]3[C@H]2O)c(=O)[nH]1 [cGMP]

From US20040086900A1, “Cloning of mammalian genes in microbial organisms and methods for pharmacological screening” (priority 1990, published 2004)
